Results as given in paper PMC9505425, “Targeting of the Mitochondrial TET1 Protein by Pyrrolo[3,2-b]pyrrole Chelators” (International Journal of Molecular Sciences, 2022).
“And” between values parts separate entries of the source, which are not always exact repeats. Equal values may be shown once.

Assays:
Format in all cases: cell-based, human
[1] = MTT cytotoxicity assay, HF-P4; conditions: human, HF-P4 normal human dermal fibroblasts, repeats, read-out: Cell viability %
Experimental: (§1) The effects of the tested compounds 1–6 on HF-P4, U-118 MG, H1299, BT-20, and Caov-3 cell lines were evaluated by the MTT assay during 48 h treatment (Table 2 and Tables S2–S31). In all tested compounds, we recognized a difference in cytotoxicity between healthy cells (HF-P4) and cancer cell lines (BT-20, Caov-3, and H-1299). […] In the case of ovarian cancer, the authors discovered oncogenic and poor prognosis roles of TET1 in epithelial ovarian carcinoma (EOC). TET1 is believed to demethylate the epigenome and activate numerous oncogenic pathways in EOC. The aforementioned study presents a new mechanism where TET1 contributes to tumor development through collaboration with CK2α [21]. The overexpression of the TET1 protein was also found in triple negative breast cancer and was associated with an activation of PI3K/mTOR pathway and decreased overall survival.
(§2) A human dermal fibroblast cell line was used for intracellular localization and cytotoxicity assay (MTT). Human fibroblast cells HF-P4 (human fibroblasts—patient 4) are normal dermal fibroblasts, which were obtained from the residual skin of a healthy patient who underwent plastic surgery (with informed consent of the patient). HF-P4 cell lines were obtained from the Department of Plastic Surgery, Third Faculty of Medicine, Charles University and University Hospital Královské Vinohrady, Prague, Czech Republic, as described by Szabo et al., 2011, and Dvořánková et al., 2019 [88, 89], and have been processed in accordance with the relevant local ethics committee and the Declaration of Helsinki protection of patients’ rights and benefits with written and signed informed consent of each patient. Cells were cultivated under standard conditions in Dulbecco’s modified Eagle’s medium (ATCC, Manassas, VA, USA), supplemented with 10% FBS and streptomycin (100 μg/mL) at 37 °C at a 5% CO2 atmosphere.
(§3) For the cytotoxicity assay, we used the following cell lines: human glioblastoma cell line U118-MG, human mammary gland/breast cell line BT-20, human ovary adenocarcinoma cell line Caov-3, and non-small-cell lung carcinoma H-1299. As previously mentioned, these cell lines contain a high level of the TET1 protein, which corresponds to a lower overall survival. In addition to these cell cultures, we used the human dermal fibroblast cell line HF-P4 as a healthy control. Determination of cytotoxicity was performed using the MTT [3-(4,5-dimethylthiazol-2-yl)-2,5-diphenyltetrazolium bromide] colorimetric assay. Viable cells from each cell line were cultured in 96-well plates (VWR, Stříbrná Skalice, Czech Republic) at a density of 1.0 × 10^5 cells per well and allowed to grow for 24 h in 200 μL of recommended medium. After a 1-day incubation, the medium was replaced with solutions of compounds 1–6 at concentration ranges of 0.1–20 μM. Each concentration was measured four times within one test, and the entire test was repeated three times. Tested compounds 1–6 were dissolved in DMSO and then diluted with corresponding medium to a final volume of 200 μL (maximum 1% DMSO). After 48 h exposure, cells were treated with 175 μL of MTT solution (P-LAB, Prague, Czech Republic) for 2 h. In the next step, MTT solution was removed, and 125 μL of DMSO (Penta, Prague, Czech Republic) was added to solubilize dark crystals of formazan formed in intact cells, and absorbance was measured at 570 nm by the enzyme-linked immunoabsorbent assay reader Infinite® 200 PRO (Tecan, Männedorf, Switzerland). The final DMSO concentration was smaller than 1% (v/v). The absorbance of untreated cells was considered 100%, and IC50 values were calculated by the GraphPad Prism 8 software. As a parameter for cytotoxicity, we used a concentration that inhibits 50% of cell growth (IC50).

HF-P4 cells = assay: MTT cytotoxicity assay, HF-P4; conditions: 48 h; for Cell viability %: repeats
Experimental: as §1, §2, §3

H-1299 cells = assay: MTT cytotoxicity assay, H-1299
Experimental: as §1
A human glioblastoma cell line (U118-MG) and a human non-small-cell lung carcinoma cell line (H1299) were used for the cytotoxicity assay (MTT). Both cell lines were generously supplied by Dr. M. Masařik, PhD, Department of Pathological physiology, Masaryk University, Czech Republic. U118-MG cells were cultivated under standard conditions in Dulbecco’s modified Eagle’s medium (ATCC, Manassas, VA, USA) supplemented with 10% FBS and streptomycin (100 μg/mL) at 37 °C at a 5% CO2 atmosphere. H1299 cells were cultivated under standard conditions in RPMI 1640 (BioTech, Prague, Czech Republic) medium supplemented with 10% FBS and streptomycin (100 μg/mL) at 37 °C at a 5% CO2 atmosphere.
as §3

Caov-3 cells = assay: MTT cytotoxicity assay, Caov-3
Experimental: as §1
The human ovary adenocarcinoma cell line (Caov-3), purchased from ATCC (Caov-3 (ATCC® HTB-75™), Manassas, VA, USA), was used for the cytotoxicity assay (MTT). Caov-3 cells were cultivated under standard conditions in Dulbecco’s modified Eagle’s medium (ATCC, Manassas, VA, USA) supplemented with 10% FBS and streptomycin (100 μg/mL) at 37 °C at a 5% CO2 atmosphere.
as §3

In the case of `CCN(CC)c1ccc(/C=N/NC(=O)c2ccc(-c3cc4c(cc(-c5ccc(C(=O)N/N=C/c6ccc(N(CC)CC)cc6O)cc5)n4-c4ccc(C)cc4)n3-c3ccc(C)cc3)cc2)c(O)c1` [Compound 2], the viability at 48 h, 0.5 µM ([1]; HF-P4, 500 nM) is reported as 120%, the viability at 48 h, 0.75 µM ([1]; HF-P4, 750 nM) is reported as 100% and the viability at 48 h, 1 µM ([1]; HF-P4, 1 uM) is reported as 107%. It also gave a viability at 48 h, 5 µM ([1]; HF-P4, 5 uM) of 104%, a viability at 48 h, 7.5 µM ([1]; HF-P4, 7.5 uM) of 84.4% and a viability at 48 h, 10 µM ([1]; HF-P4, 10 uM) of 83.1%. For the same compound, the viability at 48 h, 15 µM ([1]; HF-P4, 15 uM) was 69.4%, the viability at 48 h, 20 µM ([1]; HF-P4, 20 uM) was 60.3% and the Cell viability % (HF-P4 cells; HF-P4, 100 nM, 0.1 µM) was 112.667% and 100.0956% and 124.6811%. The Cell viability % (HF-P4 cells; HF-P4, 500 nM, 0.5 µM) was 121.1654% and 117.1851%, the Cell viability % (HF-P4 cells; HF-P4, 750 nM, 0.75 µM) was 106.3799% and 108.6149% and the Cell viability % (HF-P4 cells; HF-P4, 1 uM, 1 µM) was 107.7419% and 92.48%. For the same compound, the Cell viability % (HF-P4 cells; HF-P4, 2.5 uM, 2.5 µM) was 91.9392% and 112.4492% and 91.41%, the Cell viability % (HF-P4 cells; HF-P4, 5 uM, 5 µM) was 91.3% and 88.77% and the Cell viability % (HF-P4 cells; HF-P4, 7.5 uM, 7.5 µM) was 87.79% and 98.14%. For the same compound, the Cell viability % (HF-P4 cells; HF-P4, 10 uM, 10 µM) was 82.92% and 77.13%, the Cell viability % (HF-P4 cells; HF-P4, 15 uM, 15 µM) was 82.13% and 69.58% and the Cell viability % (HF-P4 cells; HF-P4, 20 uM, 20 µM) was 51.8655% and 56.81%. For the same compound, the IC50 (HF-P4 cells; Homo sapiens, MTT) was > 20 µM, the Cell viability % (H-1299 cells; H-1299, 100 nM, 48 h, repeats, 0.1 µM) was 61.37% and 71.3% and the Cell viability % (H-1299 cells; H-1299, 500 nM, 48 h, repeats, 0.5 µM) was 66.22% and 72.36%. The Cell viability % (H-1299 cells; H-1299, 750 nM, 48 h, repeats, 0.75 µM) was 70.74% and 81.49%, the Cell viability % (H-1299 cells; H-1299, 1 uM, 48 h, repeats, 1 µM) was 69.87% and 82.47% and the Cell viability % (H-1299 cells; H-1299, 2.5 uM, 48 h, repeats, 2.5 µM) was 66.9068% and 60.82%. The Cell viability % (H-1299 cells; H-1299, 5 uM, 48 h, repeats, 5 µM) was 53.26% and 57.69%, the Cell viability % (H-1299 cells; H-1299, 7.5 uM, 48 h, repeats, 7.5 µM) was 36.17% and 50.75% and the Cell viability % (H-1299 cells; H-1299, 10 uM, 48 h, repeats, 10 µM) was 38.48% and 47.35%. For the same compound, the Cell viability % (H-1299 cells; H-1299, 15 uM, 48 h, repeats, 15 µM) was 39.64% and 37.79%, the Cell viability % (H-1299 cells; H-1299, 20 uM, 48 h, repeats, 20 µM) was 32.04% and 28.82% and the viability at 0.1 µM (H-1299 cells; Homo sapiens, NCI-H1299, 48 h, H-1299, 100 nM, repeats, read-out: Cell viability %) was 77.6%. It also gave a viability at 0.5 µM (H-1299 cells; Homo sapiens, NCI-H1299, 48 h, H-1299, 500 nM, repeats, read-out: Cell viability %) of 71.5%, a viability at 0.75 µM (H-1299 cells; Homo sapiens, NCI-H1299, 48 h, H-1299, 750 nM, repeats, read-out: Cell viability %) of 74.1% and a viability at 1 µM (H-1299 cells; Homo sapiens, NCI-H1299, 48 h, H-1299, 1 uM, repeats, read-out: Cell viability %) of 72.4%. The viability at 2.5 µM (H-1299 cells; Homo sapiens, NCI-H1299, 48 h, H-1299, 2.5 uM, repeats, read-out: Cell viability %) was 73.2%, the viability at 5 µM (H-1299 cells; Homo sapiens, NCI-H1299, 48 h, H-1299, 5 uM, repeats, read-out: Cell viability %) was 53.2% and the viability at 7.5 µM (H-1299 cells; Homo sapiens, NCI-H1299, 48 h, H-1299, 7.5 uM, repeats, read-out: Cell viability %) was 42.3%. It also gave a viability at 10 µM (H-1299 cells; Homo sapiens, NCI-H1299, 48 h, H-1299, 10 uM, repeats, read-out: Cell viability %) of 45.5%, a viability at 15 µM (H-1299 cells; Homo sapiens, NCI-H1299, 48 h, H-1299, 15 uM, repeats, read-out: Cell viability %) of 39.8% and a viability at 20 µM (H-1299 cells; Homo sapiens, NCI-H1299, 48 h, H-1299, 20 uM, repeats, read-out: Cell viability %) of 28.6%. For the same compound, the IC50 (H-1299 cells; Homo sapiens, NCI-H1299, MTT, 48 h) was 8.94 µM, the Cell viability % (Caov-3 cells; Caov-3, 100 nM, 48 h, repeats, 0.1 µM) was 105.779% and 93.87% and the Cell viability % (Caov-3 cells; Caov-3, 500 nM, 48 h, repeats, 0.5 µM) was 78.8105% and 77.85%. For the same compound, the Cell viability % (Caov-3 cells; Caov-3, 750 nM, 48 h, repeats, 0.75 µM) was 73.37% and 52.9% and 76.29%, the Cell viability % (Caov-3 cells; Caov-3, 1 uM, 48 h, repeats, 1 µM) was 78.5% and 67.16% and 48.54% and the Cell viability % (Caov-3 cells; Caov-3, 2.5 uM, 48 h, repeats, 2.5 µM) was 64.6096% and 82.47% and 61.81%. The Cell viability % (Caov-3 cells; Caov-3, 5 uM, 48 h, repeats, 5 µM) was 59.21% and 86.03% and 70.4727%, the Cell viability % (Caov-3 cells; Caov-3, 7.5 uM, 48 h, repeats, 7.5 µM) was 79.2% and 67.97% and the Cell viability % (Caov-3 cells; Caov-3, 10 uM, 48 h, repeats, 10 µM) was 51.36% and 52.95%. The Cell viability % (Caov-3 cells; Caov-3, 15 uM, 48 h, repeats, 15 µM) was 50.9752% and 42.33%, the Cell viability % (Caov-3 cells; Caov-3, 20 uM, 48 h, repeats, 20 µM) was 25.3% and 23.25% and the viability at 0.1 µM (Caov-3 cells; Homo sapiens, Caov-3, 48 h, Caov-3, 100 nM, repeats, read-out: Cell viability %) was 95.3%. It also gave a viability at 0.5 µM (Caov-3 cells; Homo sapiens, Caov-3, 48 h, Caov-3, 500 nM, repeats, read-out: Cell viability %) of 76.2%, a viability at 7.5 µM (Caov-3 cells; Homo sapiens, Caov-3, 48 h, Caov-3, 7.5 uM, repeats, read-out: Cell viability %) of 73.3% and a viability at 10 µM (Caov-3 cells; Homo sapiens, Caov-3, 48 h, Caov-3, 10 uM, repeats, read-out: Cell viability %) of 52.1%. It also gave a viability at 15 µM (Caov-3 cells; Homo sapiens, Caov-3, 48 h, Caov-3, 15 uM, repeats, read-out: Cell viability %) of 42.8%, a viability at 20 µM (Caov-3 cells; Homo sapiens, Caov-3, 48 h, Caov-3, 20 uM, repeats, read-out: Cell viability %) of 28.4% and an IC50 (Caov-3 cells; Homo sapiens, Caov-3, MTT, 48 h) of 13.3 µM.
